# Laboratory results as given in paper PMC6737539 (Journal of medicinal chemistry, 2019).
# Where two headings read alike, the source gives them in different places.
# Columns and labels:
# RBP4 = RBP4 (Homo sapiens, UniProt P02753); assay: RBP4 scintillation proximity assay; type: binding; conditions: for binding to RBP4 (competition binding): purified human RBP4, 10 nM 3H-retinol radioligand
# [1] = Liver microsomal metabolic stability, rat; type: in vitro ADME; conditions: 10 μM, 30 min
# [2] = Liver microsomal metabolic stability, human; type: in vitro ADME; conditions: 10 μM, 30 min
# [3] = Liver microsomal metabolic stability, mouse; type: in vitro ADME; conditions: 10 μM, 30 min
# serum RBP4 = conditions: mice; cited from earlier work
# [4] = lipophilic ligand efficiency: RBP4 SPA pIC50 − cLog P
SMILES,binding to RBP4 (competition binding) (RBP4),LLE (RBP4; [4]),also measured
"CCCCC/C=C\C/C=C\CCCCCCCC(=O)O [linoleic acid, reference compound]",weak RBP4 ligands,,
"CC/C=C\C/C=C\C/C=C\C/C=C\C/C=C\C/C=C\CCC(=O)O [docosahexaenoic acid, reference compound]",weak RBP4 ligands,,
"CCCCCCCC/C=C\CCCCCCCC(=O)O [oleic acid, reference compound]",weak RBP4 ligands,,
"CCCCCCCCCCCCCCCC(=O)O [palmitic acid, reference compound]",weak RBP4 ligands,,
"O=C(O)c1ccccc1NC(=O)N1CCC(c2ccccc2C(F)(F)F)CC1 [Compound 3, reference compound]",,,Microsomal Stability (% remaining) RLM [1]: 85 % remaining
"COc1ccc2[nH]nc(C(=O)N3CCC(c4ccccc4C(F)(F)F)CC3)c2c1 [Compound 17, (5-Methoxy-1H-indazol-3-yl)(4-(2-(trifluoromethyl)phenyl)-piperidin-1-yl)methanone]",,3.01,
"N#Cc1ccc2nnc(C(=O)N3CCC(c4c(F)cccc4C(F)(F)F)CC3)n2c1 [Compound 64, 3-(4-(2-Fluoro-6-(trifluoromethyl)phenyl)piperidine-1-carbonyl)-[1,2,4]triazolo[4,3-a]pyridine-6-carbonitrile]",,5.89,
"CC(C)n1nc(C(=O)N2CCC(c3ccccc3C(F)(F)F)CC2)c2ccc(F)cc21 [Compound 20, (6-Fluoro-1-isopropyl-1H-indazol-3-yl)(4-(2-(trifluoromethyl)-phenyl)piperidin-1-yl)methanone]",,,LLE (RBP4): 2.03
"Cn1nc(C(=O)N2CCC(c3ccccc3C(F)(F)F)CC2)c2ccccc21 [Compound 12, (1-Methyl-1H-indazol-3-yl)(4-(2-(trifluoromethyl)phenyl)-piperidin-1-yl)methanone]",,4.56,Microsomal Stability (% remaining) RLM [1]: 0.0 % remaining; Microsomal Stability (% remaining) HLM [2]: 0.7 % remaining; Microsomal Stability (% remaining) MLM [3]: 0.2 % remaining
Cc1cc(C(=O)O)nc(N2C[C@H]3CC(c4ccccc4C(F)(F)F)C[C@H]3C2)n1 (stereo partly shown) [Compound 5],,,serum RBP4 lowering (serum RBP4): 90%
